# From US4444776A, “Dipyrido (4,3-B) (3,4-F) indoles, process for obtaining them, therapeutical use and pharmaceutical compositions” (priority 1977, dated 1984)
# Legend:
# [1] = tested on: DNA synthesis in HS5 cells; experiment: Test 6: action on DNA synthesis (14C methyl-thymidine incorporation); assay type: cell-based, hamster; conditions: in the hours following its addition
# Description: Test 6: Action on the macromolecular syntheses
# The action of the compounds according to the invention was studied by the incorporation of precursors marked by radioactive isotopes:
# ^14 C methyl-thymidine for studying the DNA synthesis
# These precursors were given for a period of 30 minutes at varying times after the addition of the product to be tested.
# The incorporation is measured after lysis of the cells for 1% of sodium dodecylsulfate and precipitation by 5% of trichloroacetic acid. The […] precipitate was collected on glass fibre Whatman GF/A filters. The filters were dried and counted in a liquid scintillation spectrometer.
# Friend leukemia virus = experiment: Test 14: viro-induced Friend leukemia, compound 21 (Tables Xa, Xb); assay type: in vivo, mouse; set-up: MST: unit not given beside the values; conditions: for life span: Tables Xa and II
# Description: Test 14: viro-induced leukemia: Friend leukemia
# A- As in test 2 hereinabove, the Friend leukemia virus inoculum was obtained from leukemia spleen and diluted to contain 100 SD50 /0.2 ml (SD50 =spleen enlarging dose 50 percent). The product to be tested was compound 21 (obtained according to example 7). It was given by I.P. route as a single injection 1 day after virus inoculation. […]
# B. The proceeding of test 2 was repeated by using the compound 21 i.e. 1-[(γ-diethylaminopropyl)amino]-5-methyl-dipyrido[4,3-b][3,4-f]indole obtained according to example 7.
# This test was carried out with a single dose of compound 21 (20 mg/kg) and with various virus doses.
# [2] = tested on: chloromonocytary tumoral cells; experiment: Test 9: action on chloromonocytary tumoral cells (chloroleukemia); assay type: in vivo, ICFW mouse
# Description: Test 9: Action on chloromonocytary tumoral cells
# In this test, the action of the products according to the invention on chloromonocytary tumoral cells was determined according to the chloroleukemia of the mouse test (ICFW mouse, co-sanguine CFW strain) isolated in Unit 22 (B. TAMBOURIN and F. WENDLING) of the "Institut National de la Sante et de la Recherche Medicale- Paris" (I.N.S.E.R.M.) in a mouse injected with a variant of the Friend virus.
# The tumour kills all the animals injected in 19.3± 2 days. This tumour develops in semi-solid ascitic form; the peritoneum is invaded, both by solid tumoral masses and cells in suspension in the ascitic liquid. The tumour is transmitted by the cells of the suspension which produce the tumoral masses and the ascitic cells.
# L1210 leukemia [3] = experiment: Test 16: structure-activity of R'1 substitution, L1210 (Table XII); assay type: in vivo, mouse (C57B16xDBA/2)F1; set-up: MST: unit not given here; conditions: for 60 days surv. / ILS % / MST / Range of death: day +1
# Description: Test 16: Relationship between structure and activity of various dipyrido indoles differing by the R'1 substitution.
# L1210 leukemia has been maintained by weekly passages on (C57B16xDBA/2)F1 mice. On day 0, mice were inoculated by I.P. route with various numbers of L1210 ascitic tumor cells in volumes of 0.1 ml. Subsequently as indicated, drugs were administrated in Ca^++ and Mg^++ free PBS solutions (Gibco) or in Mac Coy's medium (Gibso or Microbiological Associates). […]
# L1210 cells = experiment: Test 19: effect of time of administration, L1210 (Table XIV); assay type: in vivo, mouse; set-up: MST: unit not given beside the values; conditions: 20 mg/kg IP
# Text: Test 19: Effect of the time of administration of compound 21
# The non-protective effect at day+7 could be explained by the fact that some cells migrate through a compartment inaccessible to the drug (as postulated by J. B. Le Pecq for the 9-hydroxy-ellipticine).
# Cl3/8 cells = experiment: Test 5: cytotoxic effect in vitro, Cl3/8 cells; assay type: cell-based, hamster
# Description: Test 5: Cytotoxic effect in vitro
# The cytotoxic effects of the compounds according to the invention were tested in vitro on cultures of hamster, human and mouse cells.
# In particular, the BHK21 strain of hamster cells and a clone derived from this strain transformed by Hamster Sarcoma Virus HS5 clone) were used.
# 5 hours later, the cells were well attached to the plastic support, and the products to be tested were added, dilutions having been made thereof in water or in DMSO (dimethylsulfoxide) if the product is sparingly soluble in water. In this latter case, a control was made with the same final concentration of DMSO in the culture medium.
# The state of the cells was examined 24, 48 and 72 hours afterwards.
# L1210 leukemia [4] = experiment: Test 18: dose-L1210 antitumoral activity of compound 21; assay type: in vivo, mouse
# Text: Test 18: Relationship between dose and L1210 antitumoral activity of compound 21 […]
# L 1210 leukemia = experiment: Test 11: L 1210 leukemic mice, examples 7 and 8 (Table VIII); assay type: in vivo, mouse; set-up: MTS: unit not given beside the values; conditions: J+1
# Description: This test was carried out with 10^3, 10^4 and 10^5 leukemic cells on day J. This test was also carried out with the compound of example 7, i.e. 1-[(γ-diethylaminopropyl)amino]-5-methyl-dipyrido [4,3-b][3,4-f] indole (compound 21).
# [5] = 10^4 cells, 5 mg/kg, control MST 11.8
# [6] = second group: 10^4 cells, 5 mg/kg, control MST 10.9
# [7] = Table Xa, 5 mg/kg, 1 day after virus
# [8] = Table Xb, 20 mg/kg J+1, virus 1/500 (1000 SD50)
# [9] = Table Xb, 20 mg/kg J+1, virus 1/1000
# [10] = Table Xb, 20 mg/kg J+1, virus 1/2000 (250 SD50)
smiles,measurement,setting,value
"Cc1c2ccncc2c(C)c2c1[nH]c1ccncc12 [Example 1, 5,11-dimethyl dipyrido [4,3-b][3,4-f] indole]",DNA and RNA syntheses,[1],reduces very rapidly
same,life span,Friend leukemia virus,significant increase of the life span
same,Mean survival time after treatment,"[2]; 40 mg/kg 6 hours after inoculation, without treatment 18.5 ± 2 days",25.3 ± 3.1 days
"CCN(CC)CCCNc1nccc2c(C)c3[nH]c4ccncc4c3cc12 [Example 7, 1-(γ-diethylaminopropyl)amino-5-methyl-dipyrido-[4,3-b][3,4-f] indole]",60 days surv.,"L1210 leukemia [3]; 10^3 cells, 0.5 mg/kg",3
same,ILS %,"L1210 leukemia [3]; 10^3 cells, 0.5 mg/kg",17.4%
same,MST,"L1210 leukemia [3]; 10^3 cells, 0.5 mg/kg",16.2
same,Range of death,"L1210 leukemia [3]; 10^3 cells, 0.5 mg/kg",14-20
same,60 days surv.,"L1210 leukemia [3]; 10^3 cells, 5 mg/kg",5
same,ILS %,"L1210 leukemia [3]; 10^3 cells, 5 mg/kg",23.2%
same,MST,"L1210 leukemia [3]; 10^3 cells, 5 mg/kg",17
same,Range of death,"L1210 leukemia [3]; 10^3 cells, 5 mg/kg",15-22
same,60 days surv.,"L1210 leukemia [3]; 10^4 cells, 0.5 mg/kg",0
same,ILS %,"L1210 leukemia [3]; 10^4 cells, 0.5 mg/kg",11.5%
same,MST,"L1210 leukemia [3]; 10^4 cells, 0.5 mg/kg",13.54
same,Range of death,"L1210 leukemia [3]; 10^4 cells, 0.5 mg/kg",11-15
same,60 days surv.,L1210 leukemia [3]; [5],1
same,ILS %,L1210 leukemia [3]; [5],33.3%
same,MST,L1210 leukemia [3]; [5],16.2
same,Range of death,L1210 leukemia [3]; [5],13-21
same,antitumoral activity compared with Ellipticinium acetate (HUM),L1210 leukemia [3]; Table XII summary,compete favorably with Ellipticinium acetate (HUM)
same,60 days surv.,L1210 leukemia [3]; [6],1
same,ILS %,L1210 leukemia [3]; [6],65.1%
same,MST,L1210 leukemia [3]; [6],18
same,Range of death,L1210 leukemia [3]; [6],14-21
same,ILS %,L1210 cells; day +2,56.4%
same,MST,L1210 cells; day +2,15.8
same,Range of death,"L1210 cells; day +2, 10^4 cells",15-17
same,MST,L1210 cells; day +3,14.4
same,Range of death,L1210 cells; day +3,12-17
same,ILS %,"L1210 cells; day +3, listed as BD 40",43.0%
same,ILS %,"L1210 cells; day +3, listed as Compound 21",43%
same,ILS %,L1210 cells; day +4,22.8%
same,MST,L1210 cells; day +4,12.4
same,Range of death,L1210 cells; day +4,10-14
same,ILS %,L1210 cells; day +5,17.8%
same,MST,L1210 cells; day +5,11.9
same,Range of death,L1210 cells; day +5,10-13
same,ILS %,L1210 cells; day +6,20.8%
same,MST,L1210 cells; day +6,12.2
same,Range of death,L1210 cells; day +6,10-14
same,MST,L1210 cells; day +7,10.3
same,Range of death,L1210 cells; day +7,10-13
same,ILS %,"L1210 cells; day +7, listed as BD 40",2.0%
same,ILS %,"L1210 cells; day +7, listed as Compound 21",2%
same,cytotoxic activity compared with 2-methyl-9-hydroxy-ellipticinium acetate and 9-hydroxy-ellipticine,Cl3/8 cells; Table III summary,just as active as the already known derivatives
same,activity compared with products presently used as antitumoral agents in lower animals,Cl3/8 cells; general statement,"just as active, or more so"
same,ILS,L1210 leukemia [4]; 5 mg/kg,87%
same,ILS,L1210 leukemia [4]; 10 mg,52%
same,inoculated mice surviving up to 60 days,L1210 leukemia [4]; 20 mg per kg,20%
same,ILS,L1210 leukemia [4]; 20 mg/kg,75%
same,inoculated mice surviving up to 60 days,L1210 leukemia [4]; 100mg (so in the source),10%
same,ILS %,Friend leukemia virus; [7],39%
same,MST,Friend leukemia virus; [7],44.5
same,Range of death,Friend leukemia virus; [7],27 to 52 days
same,ILS %,Friend leukemia virus; [8],40%
same,MST,Friend leukemia virus; [8],40.7
same,Range of death,Friend leukemia virus; [8],31-51
same,Survivors 4 months after inoculation,Friend leukemia virus; [8],0
same,ILS %,Friend leukemia virus; [9],82.7%
same,MST,Friend leukemia virus; [9],44.4
same,Range of death,Friend leukemia virus; [9],30-54
same,Survivors 4 months after inoculation,Friend leukemia virus; [9],0
same,ILS %,Friend leukemia virus; [10],64%
same,MST,Friend leukemia virus; [10],55.4
same,Range of death,Friend leukemia virus; [10],50-82
same,Survivors 4 months after inoculation,Friend leukemia virus; [10],2
same,life span,Friend leukemia virus,significant increase of the life span
same,ILS %,"L 1210 leukemia; 10^3 cells, 0.1 mg/mouse",15.4%
same,MTS,"L 1210 leukemia; 10^3 cells, 0.1 mg/mouse",15
same,Number of surviving mice,"L 1210 leukemia; 10^3 cells, 0.1 mg/mouse",4
same,ILS %,"L 1210 leukemia; 10^3 cells, 0.2 mg/mouse",25.4%
same,MTS,"L 1210 leukemia; 10^3 cells, 0.2 mg/mouse",16.3
same,Number of surviving mice,"L 1210 leukemia; 10^3 cells, 0.2 mg/mouse",7
same,ILS %,"L 1210 leukemia; 10^4 cells, 0.1 mg/mouse",65.1%
same,MTS,"L 1210 leukemia; 10^4 cells, 0.1 mg/mouse",18
same,Number of surviving mice,"L 1210 leukemia; 10^4 cells, 0.1 mg/mouse",1
same,Mean survival time after treatment,"[2]; 1 mg/kg 24 hours after inoculation, without treatment 18.9 ± 1.8 day",29.0 ± 3.0 days
